Earlier results as cited in the PKSmart pharmacokinetics tables (Seal et al. 2025).

How the values were obtained:
[1] = Lombardo et al. 2013, J Clin Pharmacol 53:178, doi 10.1177/0091270012440282; conditions: for Vd / clearance: in vivo, iv; for fraction unbound: plasma
[2] = Lombardo, Berellini, Obach 2018, Drug Metab Dispos 46:1466, doi 10.1124/dmd.118.082966; conditions: human; for MRT / Vd / clearance / half-life: in vivo, iv; for fraction unbound: plasma

| Compound | Vd ([1]; dog) | clearance ([1]; dog) | fraction unbound ([1]; dog) | Vd ([1]; monkey) | clearance ([1]; monkey) | Vd ([1]; rat) | clearance ([1]; rat) | fraction unbound ([1]; rat) | other results |
| --- | --- | --- | --- | --- | --- | --- | --- | --- | --- |
| CC1CC(=O)NN=C1c1ccc(NN=C(C#N)C#N)cc1 (centres undefined) | 0.22 L/kg | 3.37 mL/min/kg |  |  |  |  |  |  | MRT [2]: 1.1 h; Vd [2]: 0.24 L/kg; clearance [2]: 3.8 mL/min/kg; half-life [2]: 1.1 h; fraction unbound [2]: 0.02 |
| C[C@@H](O)C1C(=O)N2C(C(=O)[O-])=C(SC3Cn4cnc[n+]4C3)[C@H](C)[C@H]12 (some centres undefined) | 0.21 L/kg | 4.7 mL/min/kg | 0.94 | 0.25 L/kg | 5.5 mL/min/kg | 0.19 L/kg | 13 mL/min/kg | 0.96 | MRT [2]: 1.3 h; Vd [2]: 0.2 L/kg; clearance [2]: 2.5 mL/min/kg; half-life [2]: 1.1 h; fraction unbound [2]: 0.92 |
| Cn1nnnc1SCC1=C(C(=O)O)N2C(=O)C(NC(=O)C(O)c3ccccc3)[C@H]2SC1 (some centres undefined) |  |  |  |  |  | 0.25 L/kg | 21.8 mL/min/kg |  | MRT [2]: 0.75 h; Vd [2]: 0.16 L/kg; clearance [2]: 3.6 mL/min/kg; half-life [2]: 0.75 h; fraction unbound [2]: 0.25 |
| Cc1cccnc1NS(=O)(=O)c1ccc(C#Cc2ccc(O)c(C(=O)O)c2)cc1 | 0.19 L/kg | 20 mL/min/kg | 0.01 | 0.08 L/kg | 1.9 mL/min/kg | 1.2 L/kg | 62 mL/min/kg | 0.0033 | fraction unbound ([1]; monkey): 0.003; MRT [2]: 23.8 h; Vd [2]: 0.1 L/kg; clearance [2]: 0.07 mL/min/kg; half-life [2]: 16 h; fraction unbound [2]: 0.0019 |
| C[C@]12C=CC(=O)C=C1CC[C@@H]1C2C(=O)C[C@@]2(C)[C@H]1CC[C@]2(O)C(=O)CO (some centres undefined) | 2.3 L/kg | 24.9 mL/min/kg | 0.5 | 1.7 L/kg | 9.8 mL/min/kg | 1.3 L/kg | 155 mL/min/kg | 0.41 | fraction unbound ([1]; monkey): 0.261; MRT [2]: 3.8 h; Vd [2]: 0.57 L/kg; half-life [2]: 2.9 h |
| [H]/N=C(\N)c1ccc(CNC(=O)C2CCN2C(=O)C(NCC(=O)O)C2CCCCC2)cc1 (centres undefined) | 0.36 L/kg | 7 mL/min/kg | 0.89 |  |  | 0.39 L/kg | 16.9 mL/min/kg | 0.9 |  |
| COC1CC(OC2C(C)C(=O)OC(C)C(C)C(O)C(C)C(=O)C3(CO3)CC(C)C(OC3OC(C)CC(N(C)C)C3O)C2C)OC(C)C1O (centres undefined) | 1.6 L/kg | 12 mL/min/kg | 0.13 |  |  | 6.8 L/kg | 51 mL/min/kg | 0.46 |  |
| Cn1c(=O)c2[nH]cnc2n(C)c1=O | 0.68 L/kg | 1.8 mL/min/kg |  | 0.69 L/kg | 3.8 mL/min/kg |  | 2.25 mL/min/kg |  |  |
| O=C(CCCCCCC(O)=NO)Nc1ccccc1 |  |  | 0.458 |  |  | 1.6 L/kg | 130 mL/min/kg |  |  |
| COC(=O)Nc1nc2ccc(C(=O)c3ccccc3)cc2[nH]1 |  |  |  |  |  | 2.6 L/kg | 9.8 mL/min/kg |  |  |
| CC(C)(N)CC(=O)NC1CCc2ccccc2N(Cc2ccc(-c3ccccc3-c3nn[nH]n3)cc2)C1=O (centres undefined) | 0.34 L/kg | 19.3 mL/min/kg | 0.86 | 0.16 L/kg | 5.7 mL/min/kg | 0.15 L/kg | 2.7 mL/min/kg | 0.02 | fraction unbound ([1]; monkey): 0.06 |
| CC1C(=O)O[C@H]2C[C@@]34[C@H]5C[C@@H](C(C)(C)C)[C@@]36C(O)C(=O)O[C@H]6O[C@@]4(C(=O)O5)[C@@]12O (some centres undefined) |  |  |  |  |  | 4.3 L/kg | 65 mL/min/kg |  |  |
| CCCCC[C@H](O)CC[C@@H]1[C@H]2Cc3cccc(OCC(=O)O)c3C[C@H]2C[C@H]1O | 0.11 L/kg | 35.8 mL/min/kg |  |  |  |  |  |  |  |
| O=C(O)CCCCO/N=C(/c1cccnc1)c1cccc(C(F)(F)F)c1 |  |  |  |  |  | 0.78 L/kg | 2 mL/min/kg | 0.05 |  |
| O=C(c1ccccc1)c1ccc2n1CCC2C(=O)O (centres undefined) | 0.33 L/kg | 1.25 mL/min/kg |  |  |  |  | 3.6 mL/min/kg |  |  |
| CN(c1nc2ccccc2s1)C1CCN(CC(O)COc2ccc(F)cc2)CC1 (centres undefined) |  |  |  |  |  | 5.8 L/kg | 35.9 mL/min/kg | 0.016 |  |
| Valproic Acd | 0.33 L/kg | 3.03 mL/min/kg | 0.215 | 0.25 L/kg | 4.2 mL/min/kg | 0.66 L/kg | 4.2 mL/min/kg | 0.366 | fraction unbound ([1]; monkey): 0.22 |
| CCC[C@@H]1CC(C(=O)N[C@@H]([C@H]2O[C@H](SC)[C@H](O)[C@@H](O)[C@H]2O)[C@H](C)Cl)N(C)C1 (some centres undefined) |  |  | 0.035 |  |  |  |  | 0.325 |  |
| CC(=O)N[C@H]1[C@H]([C@H](O)[C@H](O)CO)OC(C(=O)O)=C[C@@H]1N=C(N)N |  |  |  |  |  | 0.8 L/kg | 31.7 mL/min/kg |  |  |
| [H]/N=C(\N)N1CCC[C@@H](CNC(=O)CC(NS(=O)(=O)c2ccc3ccccc3c2)C(=O)N(CC(=O)O)C2CC2)C1 (some centres undefined) | 0.64 L/kg |  | 0.52 | 0.32 L/kg |  | 0.6 L/kg |  | 0.33 |  |
| C[C@@H](O)C1C(=O)N2C(C(=O)O)=C(S[C@H]3CC(C(=O)N4CC[C@H](NC(=O)CN=C(N)N)C4)N(C)C3)[C@H](C)[C@H]12 (some centres undefined) | 0.25 L/kg | 3.96 mL/min/kg | 0.928 | 0.18 L/kg | 1.7 mL/min/kg | 0.2 L/kg | 15.7 mL/min/kg | 0.95 | fraction unbound ([1]; monkey): 0.85 |
| Cc1cccc([C@H](C)c2cnc[nH]2)c1C |  |  |  |  |  | 3.24 L/kg | 59.4 mL/min/kg |  |  |
| CCC1=NC(=O)C2CSSCC/C=C\[C@H](CC(=O)NC(C(C)C)C(=O)N2)OC(=O)C(C(C)C)NC1=O (some centres undefined) |  |  |  | 4.95 L/kg | 27.9 mL/min/kg | 63.8 L/kg | 625 mL/min/kg |  |  |

| Compound | Vd ([1]; dog) | clearance ([1]; dog) | fraction unbound ([1]; dog) | Vd ([1]; monkey) | clearance ([1]; monkey) | Vd ([1]; rat) | clearance ([1]; rat) | fraction unbound ([1]; rat) | other results |
| --- | --- | --- | --- | --- | --- | --- | --- | --- | --- |
| COc1ccccc1Oc1c(NS(=O)(=O)c2ccc(C)cn2)nc(-c2ccnc(-c3nn[nH]n3)c2)nc1OCCO | 0.11 L/kg | 2.89 mL/min/kg |  | 0.36 L/kg | 19 mL/min/kg | 0.32 L/kg | 11.7 mL/min/kg |  |  |
| CCC#CC[C@H](C)[C@H](O)C#C[C@@H]1[C@H]2C/C(=C/COCCCC(=O)O)C[C@H]2C[C@H]1O |  |  |  | 1.6 L/kg | 63.1 mL/min/kg | 1.5 L/kg | 170 mL/min/kg |  |  |
| CC(C)=CCN1CC[C@@]2(C)c3cc(O)ccc3C[C@@H]1[C@@H]2C |  |  |  | 9.62 L/kg | 56.6 mL/min/kg |  |  |  |  |
| CC1(C)SC2C(NC(=O)C(NC(=O)N3CCNC3=O)c3ccccc3)C(=O)N2C1C(=O)O (centres undefined) | 0.27 L/kg | 2.8 mL/min/kg |  |  |  |  |  |  |  |
| CCN[C@@H]1C[C@H](N)[C@@H](OC2OC(CN)=CCC2N)[C@H](O)[C@H]1O[C@H]1OC[C@](C)(O)[C@H](NC)[C@H]1O (some centres undefined) | 0.34 L/kg | 3.4 mL/min/kg |  |  |  |  |  |  |  |
| CC(=O)Nc1ccc(O)cc1 |  |  |  |  |  |  |  | 0.27 |  |
| C[C@@H](O)C1C(=O)N2C(C(=O)O)=C(S[C@@H]3CN[C@H](CNS(N)(=O)=O)C3)[C@H](C)[C@H]12 (some centres undefined) |  | 4.7 mL/min/kg | 0.9 |  | 7.7 mL/min/kg |  | 35.7 mL/min/kg | 0.65 | fraction unbound ([1]; monkey): 0.94 |
| Cc1nnc(C(C)C)n1C1C[C@H]2CC[C@@H](C1)N2CC[C@H](NC(=O)C1CCC(F)(F)CC1)c1ccccc1 (some centres undefined) | 2.32 L/kg | 21 mL/min/kg | 0.36 |  |  | 2.53 L/kg | 74 mL/min/kg | 0.49 |  |
| C[C@@H](O)C1C(=O)N2C(C(=O)O)=C(SCC/N=C/N)C[C@H]12 (some centres undefined) |  | 4.3 mL/min/kg | 1 |  | 5.7 mL/min/kg |  | 14.5 mL/min/kg | 1 | fraction unbound ([1]; monkey): 0.975 |
| CCCc1nn(C)c2c(=O)nc(-c3cc(S(=O)(=O)N4CCN(C)CC4)ccc3OCC)[nH]c12 | 5.2 L/kg | 12 mL/min/kg | 0.14 |  |  | 1.1 L/kg | 48 mL/min/kg |  |  |
| CN1C2CCC[C@@H]1CC(NC(=O)c1nn(C)c3ccccc13)C2 (some centres undefined) |  |  |  |  |  | 16.7 L/kg | 824 mL/min/kg |  |  |
| NC(=O)C(c1ccccc1)(c1ccccc1)[C@@H]1CCN(CCc2ccc3c(c2)CCO3)C1 | 6.8 L/kg | 39 mL/min/kg |  |  |  | 7 L/kg | 59 mL/min/kg |  |  |
| CC(NC(=O)N(CCCl)N=O)C(N)=O (centres undefined) |  | 17.6 mL/min/kg |  |  |  |  |  |  |  |
| CC1C(=O)O[C@H]2[C@H](O)[C@@]34[C@H]5C[C@@H](C(C)(C)C)[C@@]36C(O)C(=O)O[C@H]6O[C@@]4(C(=O)O5)[C@@]12O (some centres undefined) |  |  |  |  |  | 3.5 L/kg | 60 mL/min/kg |  |  |
| COCCc1ccc(OCC(O)CNC(C)C)cc1 (centres undefined) |  |  | 0.756 | 14 L/kg | 21.9 mL/min/kg | 6.3 L/kg | 87.2 mL/min/kg | 0.69 | fraction unbound ([1]; monkey): 0.825 |
| COc1ccc2nc([S+](O)Cc3ncc(C)c(OC)c3C)[n-]c2c1 (centres undefined) |  |  |  |  |  | 0.44 L/kg | 53 mL/min/kg | 0.19 |  |
| CONC(C(=O)N=C1C(=O)N2C(C(=O)[O-])=C(C[N+]34CCC(C(N)=O)(CC3)CC4)CS[C@H]12)c1nsc(N)n1 (some centres undefined) | 0.23 L/kg | 3.3 mL/min/kg |  |  |  |  |  |  |  |
| NC(N)=Nc1nc(CSCCC(N)=NS(N)(=O)=O)cs1 | 0.79 L/kg | 8.6 mL/min/kg | 0.72 | 2.1 L/kg | 15 mL/min/kg | 0.8 L/kg | 22 mL/min/kg | 0.47 | fraction unbound ([1]; monkey): 0.13 |
| O=C(OC1CC2CC3C[C@@H](C1)N2CC3=O)c1c[nH]c2ccccc12 (some centres undefined) |  | 27 mL/min/kg | 0.5 |  | 77 mL/min/kg | 26 L/kg | 72 mL/min/kg |  | fraction unbound ([1]; monkey): 0.5 |
| CC(C)(C)[C@]1(O)C[C@@H]2OC(=O)C[C@@]23C(=O)O[C@@H]2OC(=O)C(O)[C@]213 (some centres undefined) |  |  |  |  |  | 10 L/kg | 140 mL/min/kg |  |  |
| [H]/N=C(\N)c1ccc(C(=O)NC(Cc2ccc(O)cc2)C(=O)N2CCC(OCC(=O)O)CC2)cc1 (centres undefined) | 0.75 L/kg |  |  | 0.29 L/kg |  | 0.24 L/kg |  |  |  |
| C#CCN(C)[C@H](C)Cc1ccccc1 | 9.46 L/kg | 160 mL/min/kg |  |  |  |  |  | 0.31 |  |
